Test results reported in ChEMBL document CHEMBL1201862, “PubChem BioAssay data set” (2004).
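Values below derive from 48-hour exposures of cells grown in 96-well plates, with endpoints linearly interpolated between the two concentrations bracketing the appropriate inhibition level. Here, GI50 denotes the concentration required for 50% inhibition of growth.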 The source made the active and inactive calls. Rule as the data show it: active = GI50 up to about 1.1 µM and inactive = higher.

Legend:
Experiment in all cases: growth of human tumour cells (NCI), 48 h
[1] = tested on: 786-0
[2] = tested on: A498
[3] = tested on: ACHN
[4] = tested on: EKVX
[5] = tested on: HL-60
[6] = tested on: K562
[7] = tested on: LOX IMVI
[8] = tested on: Malme-3M
[9] = tested on: NCI-H226
[10] = tested on: OVCAR-4
[11] = tested on: OVCAR-5
[12] = tested on: SF-295
[13] = tested on: SF-539
[14] = tested on: SK-MEL-28
[15] = tested on: SK-MEL-2
[16] = tested on: SNB-19
[17] = tested on: SNB-75
[18] = tested on: SR
[19] = tested on: UACC-257
[20] = tested on: UO-31

[C-]#[N+]C(C)(C)C[C@H]1CC(C)C2CCC(C)C3([N+]#[C-])CCC(=C)C1[C@H]23 (stereo not given in full)
GI50 [1]: 2.34 µM (inactive) | GI50 [2]: 7.96 µM (inactive) | GI50 [3]: 0.169 µM (active) | GI50 [4]: 6.55 µM (inactive) | GI50 [5]: 0.601 µM (active) | GI50 [6]: 0.327 µM (active) | GI50 [7]: 0.147 µM (active) | GI50 [8]: 5.86 µM (inactive) | GI50 [9]: 2.32 µM (inactive) | GI50 [10]: 0.234 µM (active) | GI50 [11]: 0.288 µM (active) | GI50 [12]: 0.887 µM (active) | GI50 [13]: 3.37 µM (inactive) | GI50 [14]: 11.3 µM (inactive) | GI50 [15]: 0.753 µM (active) | GI50 [16]: 2.22 µM (inactive) | GI50 [17]: 8.32 µM (inactive) | GI50 [18]: 0.418 µM (active) | GI50 [19]: 0.959 µM (active) | GI50 [20]: 0.251 µM (active)

CC(=O)OC(C)(C)[C@H]1O[C@]23O[C@]1(C)C[C@@H](C)[C@@H]2[C@@]1(C)CC[C@@]24C[C@@]25CC[C@H](O[C@@H]2OC[C@@H](O)[C@H](O)[C@H]2O)C(C)(C)[C@@H]5CC[C@H]4[C@]1(C)[C@H]3O
GI50 [1]: 6.38 µM (inactive) | GI50 [2]: 6.44 µM (inactive) | GI50 [3]: 6.07 µM (inactive) | GI50 [4]: 4.06 µM (inactive) | GI50 [5]: 2.03 µM (inactive) | GI50 [6]: 4.5 µM (inactive) | GI50 [7]: 3.27 µM (inactive) | GI50 [8]: 22.8 µM (inactive) | GI50 [9]: 8.59 µM (inactive) | GI50 [10]: 3.95 µM (inactive) | GI50 [11]: 11.8 µM (inactive) | GI50 [12]: 8 µM (inactive) | GI50 [13]: 4.35 µM (inactive) | GI50 [14]: 7.08 µM (inactive) | GI50 [15]: 18.1 µM (inactive) | GI50 [16]: 6.27 µM (inactive) | GI50 [17]: 17.1 µM (inactive) | GI50 [18]: 3.18 µM (inactive) | GI50 [19]: 18.8 µM (inactive) | GI50 [20]: 14.6 µM (inactive)

Nc1nc(Cl)c(N)c(NCC2(CO)CCCC2)n1
GI50 [1]: > 100 µM (inactive) | GI50 [2]: 44.7 µM (inactive) | GI50 [3]: > 100 µM (inactive) | GI50 [4]: 20.7 µM (inactive) | GI50 [5]: > 100 µM (inactive) | GI50 [6]: 77.1 µM (inactive) | GI50 [7]: 97.9 µM (inactive) | GI50 [8]: > 100 µM (inactive) | GI50 [9]: > 100 µM (inactive) | GI50 [10]: > 100 µM (inactive) | GI50 [11]: > 100 µM (inactive) | GI50 [12]: 86.7 µM (inactive) | GI50 [13]: > 100 µM (inactive) | GI50 [14]: > 100 µM (inactive) | GI50 [15]: > 100 µM (inactive) | GI50 [16]: > 100 µM (inactive) | GI50 [17]: > 100 µM (inactive) | GI50 [18]: > 100 µM (inactive) | GI50 [19]: 71.6 µM (inactive) | GI50 [20]: > 100 µM (inactive)

Cc1ccc(NC(=O)C(=O)Cc2cc[n+]([O-])cc2)cc1
GI50 [1]: > 100 µM (inactive) | GI50 [2]: > 100 µM (inactive) | GI50 [3]: > 100 µM (inactive) | GI50 [4]: > 100 µM (inactive) | GI50 [5]: > 100 µM (inactive) | GI50 [6]: > 100 µM (inactive) | GI50 [7]: > 100 µM (inactive) | GI50 [8]: > 100 µM (inactive) | GI50 [9]: > 100 µM (inactive) | GI50 [10]: > 100 µM (inactive) | GI50 [11]: > 100 µM (inactive) | GI50 [12]: > 100 µM (inactive) | GI50 [13]: > 100 µM (inactive) | GI50 [14]: > 100 µM (inactive) | GI50 [15]: > 100 µM (inactive) | GI50 [16]: > 100 µM (inactive) | GI50 [17]: > 100 µM (inactive) | GI50 [18]: > 100 µM (inactive) | GI50 [19]: > 100 µM (inactive) | GI50 [20]: > 100 µM (inactive)

N#CC1CCCC2SC(F)(F)C(F)(F)C12 (stereo not given)
GI50 [1]: > 100 µM (inactive) | GI50 [2]: > 100 µM (inactive) | GI50 [3]: > 100 µM (inactive) | GI50 [4]: > 100 µM (inactive) | GI50 [5]: 19.7 µM (inactive) | GI50 [6]: 30.5 µM (inactive) | GI50 [7]: 41.6 µM (inactive) | GI50 [8]: > 100 µM (inactive) | GI50 [9]: > 100 µM (inactive) | GI50 [10]: > 100 µM (inactive) | GI50 [11]: > 100 µM (inactive) | GI50 [12]: > 100 µM (inactive) | GI50 [13]: > 100 µM (inactive) | GI50 [14]: > 100 µM (inactive) | GI50 [15]: > 100 µM (inactive) | GI50 [16]: > 100 µM (inactive) | GI50 [17]: > 88.3 µM (inactive) | GI50 [18]: 23.8 µM (inactive) | GI50 [19]: > 100 µM (inactive) | GI50 [20]: > 100 µM (inactive)
